In experiment [1] the target is T1, Phosphatidylinositol 4,5-bisphosphate 3-kinase catalytic subunit delta isoform (Homo sapiens) (UniProt O00329).
T1 sequence (whole entry): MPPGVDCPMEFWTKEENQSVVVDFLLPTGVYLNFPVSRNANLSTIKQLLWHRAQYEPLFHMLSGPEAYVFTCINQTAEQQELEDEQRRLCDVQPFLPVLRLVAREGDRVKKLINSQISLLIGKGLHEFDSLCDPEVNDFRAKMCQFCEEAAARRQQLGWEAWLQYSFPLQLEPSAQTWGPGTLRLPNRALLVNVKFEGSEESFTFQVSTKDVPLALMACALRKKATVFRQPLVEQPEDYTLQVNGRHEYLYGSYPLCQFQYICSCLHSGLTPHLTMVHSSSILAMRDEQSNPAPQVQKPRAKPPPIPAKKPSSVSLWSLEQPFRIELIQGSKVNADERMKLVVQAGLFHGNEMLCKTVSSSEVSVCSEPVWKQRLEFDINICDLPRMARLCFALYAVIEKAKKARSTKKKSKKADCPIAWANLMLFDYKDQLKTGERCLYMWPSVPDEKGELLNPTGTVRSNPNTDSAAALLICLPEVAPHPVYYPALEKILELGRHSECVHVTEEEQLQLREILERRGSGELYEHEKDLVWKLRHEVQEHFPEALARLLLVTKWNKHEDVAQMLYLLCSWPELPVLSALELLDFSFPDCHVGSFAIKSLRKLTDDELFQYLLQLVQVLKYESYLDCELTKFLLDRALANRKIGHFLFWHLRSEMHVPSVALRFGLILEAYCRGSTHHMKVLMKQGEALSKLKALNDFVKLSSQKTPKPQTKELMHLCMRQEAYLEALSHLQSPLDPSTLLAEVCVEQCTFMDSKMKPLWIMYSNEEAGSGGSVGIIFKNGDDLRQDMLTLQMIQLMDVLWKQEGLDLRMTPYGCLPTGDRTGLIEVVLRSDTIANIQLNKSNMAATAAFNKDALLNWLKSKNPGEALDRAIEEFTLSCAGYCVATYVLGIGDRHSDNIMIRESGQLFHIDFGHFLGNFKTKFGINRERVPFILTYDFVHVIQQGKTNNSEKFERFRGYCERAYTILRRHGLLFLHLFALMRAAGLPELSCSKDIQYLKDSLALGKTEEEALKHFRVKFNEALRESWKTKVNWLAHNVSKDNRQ
Put plainly: Selectivity interaction (Adapta Assay) EUB0001632a PIK3CD. The conditions noted are these: at 10 µM.

The target in experiment [2] is T2, Activin receptor type-1B (Homo sapiens) (UniProt P36896).
T2 sequence (whole entry): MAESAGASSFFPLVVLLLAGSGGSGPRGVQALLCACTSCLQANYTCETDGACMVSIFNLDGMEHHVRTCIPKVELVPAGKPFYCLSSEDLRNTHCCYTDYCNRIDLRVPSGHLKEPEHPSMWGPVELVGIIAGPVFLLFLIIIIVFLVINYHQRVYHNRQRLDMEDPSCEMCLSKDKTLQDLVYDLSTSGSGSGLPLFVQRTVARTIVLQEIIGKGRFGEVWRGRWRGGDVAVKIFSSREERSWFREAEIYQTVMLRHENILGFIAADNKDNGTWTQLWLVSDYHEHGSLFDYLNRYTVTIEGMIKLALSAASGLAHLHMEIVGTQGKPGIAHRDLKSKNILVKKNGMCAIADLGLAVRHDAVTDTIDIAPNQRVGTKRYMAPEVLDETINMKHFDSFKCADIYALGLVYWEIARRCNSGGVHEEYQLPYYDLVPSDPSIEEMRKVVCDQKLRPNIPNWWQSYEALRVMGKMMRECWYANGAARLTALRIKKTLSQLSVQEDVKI
The conditions noted are these: at 10 µM.

The target in experiment [3] is T3, Histone-lysine N-methyltransferase NSD3 (Homo sapiens) (UniProt Q9BZ95).
T3 sequence (whole entry): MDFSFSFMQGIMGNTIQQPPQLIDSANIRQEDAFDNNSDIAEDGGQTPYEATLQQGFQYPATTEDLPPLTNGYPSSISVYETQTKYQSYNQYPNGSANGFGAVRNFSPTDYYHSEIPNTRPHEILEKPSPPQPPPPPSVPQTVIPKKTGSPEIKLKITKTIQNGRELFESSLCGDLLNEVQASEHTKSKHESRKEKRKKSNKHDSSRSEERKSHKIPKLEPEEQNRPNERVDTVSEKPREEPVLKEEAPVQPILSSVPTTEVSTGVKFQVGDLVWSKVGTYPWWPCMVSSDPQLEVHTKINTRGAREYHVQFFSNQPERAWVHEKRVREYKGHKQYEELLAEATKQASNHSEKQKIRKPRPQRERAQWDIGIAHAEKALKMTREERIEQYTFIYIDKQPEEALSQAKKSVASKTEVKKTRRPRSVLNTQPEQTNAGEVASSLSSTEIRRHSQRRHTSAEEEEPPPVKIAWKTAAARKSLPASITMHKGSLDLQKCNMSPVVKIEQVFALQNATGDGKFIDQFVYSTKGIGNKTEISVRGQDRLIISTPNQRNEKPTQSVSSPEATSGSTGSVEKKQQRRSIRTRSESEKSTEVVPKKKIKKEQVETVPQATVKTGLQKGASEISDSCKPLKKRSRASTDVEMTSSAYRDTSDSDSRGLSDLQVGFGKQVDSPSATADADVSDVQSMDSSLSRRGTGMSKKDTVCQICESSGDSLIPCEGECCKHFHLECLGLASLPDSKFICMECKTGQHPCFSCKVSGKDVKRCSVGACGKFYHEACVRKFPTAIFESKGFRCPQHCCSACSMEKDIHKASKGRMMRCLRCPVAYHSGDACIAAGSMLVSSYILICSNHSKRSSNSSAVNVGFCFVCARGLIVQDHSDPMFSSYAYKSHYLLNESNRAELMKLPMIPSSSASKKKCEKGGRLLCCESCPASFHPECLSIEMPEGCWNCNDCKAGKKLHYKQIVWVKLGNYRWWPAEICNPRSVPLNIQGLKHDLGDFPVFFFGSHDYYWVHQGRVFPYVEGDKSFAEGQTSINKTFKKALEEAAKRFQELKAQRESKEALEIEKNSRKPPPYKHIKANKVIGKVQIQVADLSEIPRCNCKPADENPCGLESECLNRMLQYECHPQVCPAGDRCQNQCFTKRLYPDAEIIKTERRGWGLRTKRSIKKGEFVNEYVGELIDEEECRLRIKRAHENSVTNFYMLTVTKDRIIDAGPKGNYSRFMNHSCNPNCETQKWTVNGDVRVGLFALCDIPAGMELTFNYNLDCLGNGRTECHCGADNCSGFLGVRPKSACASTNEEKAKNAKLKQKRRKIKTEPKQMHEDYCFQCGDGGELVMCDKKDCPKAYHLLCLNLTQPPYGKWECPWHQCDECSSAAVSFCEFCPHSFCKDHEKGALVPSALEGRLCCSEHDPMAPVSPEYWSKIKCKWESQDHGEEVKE
Put plainly: Selectivity interaction (Methyltransferase screen (radiometric assays, panel of 8 PRMTs, 21 protein lysine methyltransferases, 3 DNA methyltransferases, and one RNA methyltransferase)) EUB0000272b NSD3.

In experiment [1], `Cn1cc(-n2cnc3c(NCc4nc5cc(Cl)c(Cl)cc5[nH]4)nc(N4CCOCC4)nc32)cn1` displayed a % of inhibition of 66.6%.
For the compound `CCN(CC)CCCCNc1ncc2cc(-c3cc(OC)cc(OC)c3)c(NC(=O)NC(C)(C)C)nc2n1`, the % of control in experiment [2] stood at 100%.
Regarding `Cc1cc(C)cc([C@H]2c3cc(C)ccc3NC(=O)CN2C(=O)c2ccc(Br)s2)c1`, the values for the % of activity in experiment [3] (at 1 µM) and in experiment [3] (at 10 µM) were 104% and 99%, respectively.

Source of the values: ChEMBL document CHEMBL5465560, “Selectivity Literature for EUbOPEN Chemogenomic Library” (2024).
